Broadly, the EC50 is the concentration needed to bring the measured effect to its halfway point. Low readings indicate higher potency in that assay, high ones lower potency in that assay.

Experimental findings from patent US8618154B2, “LXR modulators” (Bristol-Myers Squibb Company, priority 2009, dated 2013) are described below.

This assay deals with T1, LXRα (Homo sapiens, UniProt Q13133).
T1 construct: Co-transfection expression plasmids, comprising full-length LXRα (pCMX-h LXRα); expressed in transfected cells; host or cells: CV-1 African green monkey kidney cells, transient transfection with FuGENE6
T1 sequence (Q13133 1-447): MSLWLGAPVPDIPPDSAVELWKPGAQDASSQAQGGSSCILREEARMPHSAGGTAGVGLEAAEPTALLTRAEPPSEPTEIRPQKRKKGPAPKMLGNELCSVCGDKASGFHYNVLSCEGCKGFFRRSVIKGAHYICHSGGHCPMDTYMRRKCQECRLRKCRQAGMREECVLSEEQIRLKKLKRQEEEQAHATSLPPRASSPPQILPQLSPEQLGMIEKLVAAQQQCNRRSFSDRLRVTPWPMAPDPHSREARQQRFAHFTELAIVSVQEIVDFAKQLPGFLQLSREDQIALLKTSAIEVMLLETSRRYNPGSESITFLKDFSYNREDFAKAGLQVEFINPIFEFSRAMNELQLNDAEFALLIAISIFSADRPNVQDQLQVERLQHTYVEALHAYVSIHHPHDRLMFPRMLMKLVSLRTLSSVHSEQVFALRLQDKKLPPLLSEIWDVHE
T1 sequence (P19793 1-462 partner): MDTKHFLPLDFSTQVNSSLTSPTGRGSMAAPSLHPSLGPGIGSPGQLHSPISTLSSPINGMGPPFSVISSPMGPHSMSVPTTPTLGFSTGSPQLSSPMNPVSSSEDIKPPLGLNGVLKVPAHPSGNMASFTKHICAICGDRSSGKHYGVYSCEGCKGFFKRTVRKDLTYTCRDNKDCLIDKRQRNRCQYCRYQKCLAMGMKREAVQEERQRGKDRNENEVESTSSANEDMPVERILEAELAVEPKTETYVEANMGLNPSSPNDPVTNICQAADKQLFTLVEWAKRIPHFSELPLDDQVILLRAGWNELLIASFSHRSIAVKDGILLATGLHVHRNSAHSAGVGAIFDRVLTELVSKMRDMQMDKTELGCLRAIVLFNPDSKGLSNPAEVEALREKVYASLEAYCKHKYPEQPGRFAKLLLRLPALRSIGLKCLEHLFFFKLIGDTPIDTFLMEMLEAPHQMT
In words: LXR/LXRE co-transfection assay (LXRα). Type of assay: cell-based. Conditions: for EC50: CV-1 cells, LXRE luciferase reporter; for Emax: efficacy relative to high control N-(3-((4-fluorophenyl)-(naphthalene-2-sulfonyl)amino)propyl)-2,2-dimethylpropionamide, read-out: LXRα Eff (%). From the text:
To measure the ability of compounds to activate or inhibit the transcriptional activity of LXR in a cell based assay, the co-transfection assay was used. It has been shown that LXR functions as a heterodimer with RXR. For the co-transfection assay, expression plasmids for LXRα and LXRβ are introduced separately via transient transfection into mammalian cells along with a luciferase reporter plasmid that contains one copy of a DNA sequence that is bound by LXR-RXR heterodimers (LXRE; Willy, P. et. al. 1995). LXRs heterodimerize with the endogenous RXR. Treatment of transfected cells with an LXR agonist increases the transcriptional activity of LXR, which is measured by an increase in luciferase activity.
Co-transfection expression plasmids, comprising full-length LXRα (pCMX-h LXRα or LXRβ (pCMX-hLXRβ), reporter plasmid (LXREx1-Tk-Luciferase), and control (pCMX-Galactosidase expression vector) (Willey et al. Genes & Development 9 1033-1045 (1995)).
CV-1 cells were prepared 24 hours prior to the experiment by plating them into T-175 flasks or 500 cm^2 dishes in order to achieve 70-80% confluency on the day of the transfection. The number of cells to be transfected was determined by the number of plates to be screened. Each well of a 384 well plate requires ˜8000 cells. DNA Transfection Reagent was prepared by mixing the required plasmid DNAs with a cationic lipid transfection reagent FuGENE6 (Roche) by following the instructions provided with the reagents. Optimal DNA amounts were determined empirically per cell line and size of vessel to be transfected. For each T175 cm^2 flask a total of 20 μg of DNA, 60 μl of Fugene 6 and 1 ml of Optimem was mixed and added. Cells were then incubated at least 5 hours at 37° C. to prepare screening cells.
Assay plates were prepared by dispensing 5 μL, of compound per well of a 384 well plate to achieve final compound concentration of 10 μM and no more than 0.5% DMSO. Media was removed from the screening cells, the cells trypsinized, harvested cells by centrifugation, counted, and plated at a density of approximately 8000 cells per well in the 384 well assay plate prepared above in a volume of about 45 μL. Assay plates containing both compounds and screening cells (50 μL, in total volume) were incubated for 20 hours at 37° C.
After incubation with compounds, media was removed from the cells and luciferase assay reagent (30 μL/well) added. After ˜2 minutes at ambient temperature, the assay plates were read on a luminometer (PE Biosystems Northstar reader with on-board injectors, or equivalent).
The LXR/LXRE co-transfection assay can be used to establish the EC50/IC50 values for potency and percent activity or inhibition for efficacy. Efficacy defines the activity of a compound relative to a high control ((N-(3-((4-fluorophenyl)-(naphthalene-2-sulfonyl)amino)propyl)-2,2-dimethylpropionamide)) or a low control (DMSO/vehicle). The dose response curves are generated from a 10 point curve with concentrations differing by ½ LOG units.
The data from this assay is fitted to the following equation, from which the EC50 value may be solved: Y=Bottom+(Top−Bottom)/(1+10^((logEC50-X)*HillSlope)).
The EC50/IC50 is therefore defined as the concentration at which an agonist or antagonist elicits a response that is half way between the Top (maximum) and Bottom (baseline) values. The EC50/IC50 values represented are the averages of at least 2 and normally 3 independent experiments. The determination of the relative efficacy or % control for an agonist is by comparison to the maximum response achieved by ((N-(3-((4-fluorophenyl)-(naphthalene-2-sulfonyl)-amino)propyl)-2,2-dimethylpropionamide) that is measured individually in each dose response experiment.
Background: A reporter such as luciferase makes a cellular process visible.

For the compound `CC(C)(O)c1cn(-c2ccc(-c3cccc(S(C)(=O)=O)c3)cc2)c(C(C)(C)c2ccccc2Cl)n1` [Compound No. 19, Table 1, WO 2007/002563, reference compound], the EC50 was in the range of 101 to 1000 nM and the Emax turned out to be 38%. Consider `CC(C)(O)c1cn(-c2ccc(-c3cc(F)c(CO)c(S(C)(=O)=O)c3)cc2)c(C(C)(C)c2ccccc2F)n1` [Example 1, 2-(1-(3′-fluoro-4′-(hydroxymethyl)-5′-(methylsulfonyl)biphenyl-4-yl)-2-(2-(2-fluorophenyl)propan-2-yl)-1H-imidazol-4-yl)propan-2-ol], for which the EC50 lay within 101 to 1000 nM and the Emax is 13%. On to `Cc1cc(-c2cc(F)c(CO)c(S(C)(=O)=O)c2)ccc1-n1cc(C(C)(C)O)nc1C(C)(C)c1c(F)cccc1Cl` [Example 2, 2-(2-(2-(2-chloro-6-fluorophenyl)propan-2-yl)-1-(3′-fluoro-4′-(hydroxymethyl)-3-methyl-5′-(methylsulfonyl)biphenyl-4-yl)-1H-imidazol-4-yl)propan-2-ol], for which the concentration giving a half-maximal response (EC50) was less than 100 nM and the Emax amounted to 10%. On to `CC(C)(O)c1cn(-c2ccc(-c3cc(F)c(CO)c(S(C)(=O)=O)c3)cc2Cl)c(C(C)(C)c2c(Cl)cccc2Cl)n1` [Example 3, 2-(1-(3-chloro-3′-fluoro-4′-(hydroxymethyl)-5′-(methylsulfonyl)biphenyl-4-yl)-2-(2-(2,6-dichlorophenyl)propan-2-yl)-1H-imidazol-4-yl)propan-2-ol], for which the EC50 was less than 100 nM and the Emax is 6%. In the case of `CC(C)(O)c1cn(-c2ccc(-c3cc(F)c(CO)c(S(C)(=O)=O)c3)cc2)c(C(C)(C)c2cccc(F)c2Cl)n1` [Example 4, 2-(2-(2-(2-chloro-3-fluorophenyl)propan-2-yl)-1-(3′-fluoro-4′-(hydroxymethyl)-5′-(methylsulfonyl)biphenyl-4-yl)-1H-imidazol-4-yl)propan-2-ol], the Emax stood at 12%.

Take `CC(C)(O)c1cn(-c2ccc(-c3cc(F)c(CO)c(S(C)(=O)=O)c3)cc2)c(C(C)(C)c2c(Cl)cccc2Cl)n1` [Example 5, 2-(2-(2-(2,6-dichlorophenyl)propan-2-yl)-1-(3′-fluoro-4′-(hydroxymethyl)-5′-(methylsulfonyl)biphenyl-4-yl)-1H-imidazol-4-yl)propan-2-ol]: the half-maximal effective concentration (EC50) is less than 100 nM and the Emax was determined as 25%. As to `CC(C)(O)c1cn(-c2ccc(-c3cc(F)c(CO)c(S(C)(=O)=O)c3)cc2F)c(C(C)(C)c2ccccc2Cl)n1` [Example 6, 2-(2-(2-(2-Chloro-phenyl)propan-2-yl)-1-(3,3′-difluoro-4′-hydroxymethyl-5′-(methylsulfonyl)biphenyl-4-yl)-1H-imidazol-4-yl)-propan-2-ol], the EC50 was less than 100 nM and the Emax turned out to be 25%. `CC(C)(O)c1cn(-c2ccc(-c3cc(F)c(CO)c(S(C)(=O)=O)c3)cc2F)c(C(C)(C)c2c(F)cccc2Cl)n1` [Example 7, 2-(2-(2-(2-chloro-6-fluorophenyl)propan-2-yl)-1-(3,3′-difluoro-4′-(hydroxymethyl)-5′-(methylsulfonyl)biphenyl-4-yl)-1H-imidazol-4-yl)propan-2-ol]: the EC50 was less than 100 nM and the Emax was 15%. Regarding `CC(C)(O)c1cn(-c2ccc(-c3cc(F)c(CO)c(S(C)(=O)=O)c3)cc2F)c(C(C)(C)c2ccccc2F)n1` [Example 8, 2-{1-(3,3′-Difluoro-4′-hydroxymethyl-5′-methanesulfonyl-biphenyl-4-yl)-2-[2-(2-fluorophenyl)propan-2-yl]-1H-imidazol-4-yl}-propan-2-ol], the EC50 was less than 100 nM and the Emax came out at 10%. In the case of `CC(C)(O)c1cn(-c2ccc(-c3cc(F)c(CO)c(S(C)(=O)=O)c3)cc2F)c(C(C)(C)c2c(Cl)cccc2Cl)n1` [Example 9, 2-(2-(2-(2,6-dichlorophenyl)propan-2-yl)-1-(3,3′-difluoro-4′-(hydroxymethyl)-5′-(methylsulfonyl)biphenyl-4-yl)-1H-imidazol-4-yl)propan-2-ol], the Emax came to 20%. For `CC(C)(O)c1cn(-c2ccc(-c3cc(F)c(CO)c(S(C)(=O)=O)c3)cc2F)c(Cc2ccc(Cl)cc2Cl)n1` [Example 11, 2-(2-(2,4-dichlorobenzyl)-1-(3,3′-difluoro-4′-(hydroxymethyl)-5′-(methylsulfonyl)biphenyl-4-yl)-1H-imidazol-4-yl)propan-2-ol], the EC50 was more than 1000 nM. `CC(C)(O)c1cn(-c2ccc(-c3cc(F)c(CO)c(S(C)(=O)=O)c3)cc2F)c(Cc2ccccc2C(F)(F)F)n1` [Example 12, 2-(1-(3,3′-difluoro-4′-(hydroxymethyl)-5′-(methylsulfonyl)biphenyl-4-yl)-2-(2-(trifluoromethyl)benzyl)-1H-imidazol-4-yl)propan-2-ol]: the EC50 was less than 100 nM and the Emax was 13%. The matching figures for `CC(C)(O)c1cn(-c2ccc(-c3cc(F)c(CO)c(S(C)(=O)=O)c3)cc2Cl)c(Cc2ccc(F)cc2Cl)n1` [Example 13, 2-(1-(3-chloro-3′-fluoro-4′-(hydroxymethyl)-5′-(methylsulfonyl)biphenyl-4-yl)-2-(2-chloro-4-fluorobenzyl)-1H-imidazol-4-yl)propan-2-ol]: less than 100 nM and 18%. On to `CC(C)(O)c1cn(-c2ccc(-c3cc(F)c(CO)c(S(C)(=O)=O)c3)cc2F)c(Cc2ccc(F)cc2Cl)n1` [Example 14, 2-(2-(2-chloro-4-fluorobenzyl)-1-(3,3′-difluoro-4′-(hydroxymethyl)-5′-(methylsulfonyl)biphenyl-4-yl)-1H-imidazol-4-yl)propan-2-ol], for which the EC50 was less than 100 nM and the Emax worked out at 15%. The matching figures for `CC(C)(O)c1cn(-c2ccc(-c3cc(F)c(CO)c(S(C)(=O)=O)c3)cc2)c(Cc2ccc(Cl)cc2Cl)n1` [Example 15, 2-(2-(2,4-dichlorobenzyl)-1-(3′-fluoro-4′-(hydroxymethyl)-5′-(methylsulfonyl)biphenyl-4-yl)-1H-imidazol-4-yl)propan-2-ol]: less than 100 nM and 8%.
